Experimental data published in patent publication US11084895B2, “Modified polytetrafluoroethylene fine powder and uniaxially stretched porous body” (DAIKIN INDUSTRIES, LTD., priority 2013, dated 2021).

Test: LogPOW, octanol-water partition coefficient calculated from HPLC elution time via calibration curve
Format: physicochemical
Settings: partition coefficient between 1-octanol and water, ODS-120T column, acetonitrile/0.6 mass % HClO4 aq. 1/1, 40° C.
Experimental: The LogPOW value is a partition coefficient between 1-octanol and water, and is represented by LogP, wherein P represents the ratio of (fluorosurfactant concentration in octanol)/(fluorosurfactant concentration in water) when an octanol/water (1:1) liquid mixture containing a fluorosurfactant is phase-separated.
The octanol-water partition coefficient represented by LogPOW is calculated as follows. HPLC is performed on standard substances (heptanoic acid, octanoic acid, nonanoic acid, and decanoic acid) each having a known octanol-water partition coefficient using TOSOH ODS-120T column (ϕ4.6 mm×250 mm) as a column and acetonitrile/0.6 mass % HClO4 aqueous solution=1/1 (vol/vol %) as an eluent at a flow rate of 1.0 ml/min, a sample amount of 300 μL, and a column temperature of 40° C., with detection light UV 210 nm. A calibration curve between the respective elution times and the known octanol-water partition coefficients is drawn, and the LogPOW value is calculated from the elution time of the sample liquid in HPLC based on the calibration curve.

## N.O=C(O)C(F)(OC(F)(F)C(F)(OC(F)(F)F)C(F)(F)F)C(F)(F)F (centres unmarked) [CF3OCF(CF3)CF2OCF(CF3)COONH4]
  LogPOW value: ≤ 3.4

## O=C(O)C(F)(F)C(F)(F)C(F)(F)C(F)(F)C(F)(F)C(F)(F)C(F)(F)F [PFOA, ammonium perfluorooctanoate]
  chromatographic logP: 3.5
